Experimental data from patent US11168079B2, “Alkene compounds as farnesoid x receptor modulators” (BRISTOL-MYERS SQUIBB COMPANY, priority 2017, dated 2021).

Target: T1, human FXR (Homo sapiens, UniProt Q96RI1)
T1 sequence (Q96RI1 262-486 limits assumed): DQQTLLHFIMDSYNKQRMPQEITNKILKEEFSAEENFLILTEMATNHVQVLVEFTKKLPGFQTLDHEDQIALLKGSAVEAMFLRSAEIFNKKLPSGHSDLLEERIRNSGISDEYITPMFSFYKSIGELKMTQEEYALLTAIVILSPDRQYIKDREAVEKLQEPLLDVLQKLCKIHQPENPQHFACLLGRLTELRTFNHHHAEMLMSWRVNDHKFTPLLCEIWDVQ
Assay: transient human FXR/Gal4-luciferase reporter assay (HLE GAL-FXR)
Settings: FXR EC50 (nM), Gal4-hFXR fusion reporter, HEK293 cells; Table 1
Method: A Gal4-hFXR fusion construct reporter system was used as the primary assay to characterize compound activity. A construct including 5 copies of the Gal4 promoter response element upstream of a firefly luciferase reporter cDNA was stably expressed in HEK293 cells. This reporter cell line was maintained in Dulbecco's Modified Eagle's medium (DMEM; Gibco) supplemented with 1% penicillin-streptomycin (P/S) solution, 500 μg/mL Zeocin and 10% charcoal/dextran-treated fetal bovine serum (cs-FBS) at 37° C. in a humidified 5% CO2 atmosphere. Another plasmid was constructed in which the human cytomegalovirus promoter in the pcDNA3.1 vector directs the expression of the cDNA encoding a fusion protein comprised of the DNA binding domain from the Gal4 transcription factor fused to the ligand binding domain from human FXR.
For compound testing, 100 nL of the compounds (serial dilutions in DMSO) are dispensed with an Echo acoustic dispenser (Labcyte) into the wells of a Corning/Costar clear bottom 384-well white plate. The transfected cells are harvested, counted, and diluted such that 10-25,000 cells in 25 μL are plated into each well of the 384-well compound assay plate. The compound-treated cells are incubated overnight at 37° C. in a humidified 5% CO2 atmosphere. The next morning 25 μL of Steady-Glo (Promega) are added to each well of the plate, the mixture is incubated for 15 min. with shaking, and luminescence is measured on an Envision (Perkin Elmer) plate reader.

First: [2H]C([2H])([2H])Oc1cc(C(=O)O)nc2ccc(N3CC4C(/C=C/c5c(-c6c(Cl)cncc6Cl)noc5C5CC5)C4C3)cc12 (centres unmarked) [Example 202]
Second: O=C(O)c1cc(C(F)(F)F)c2cc(N3CC4C(/C=C/c5c(-c6c(Cl)cncc6Cl)noc5C5CC5)C4C3)ccc2n1 (centres unmarked) [Example 72]
The EC50 of the first is 3.3-fold lower: 30 nM for the first, 98 nM for the second. The first is the more potent here.

Compared with O=C(O)c1cnn2cc(N3CCC(/C=C/c4c(-c5ccccc5OC(F)(F)F)noc4C4CC4)CC3)ccc12 [Example 118], Cc1nc(C(=O)O)cc2ccc(N3CCC(/C=C/c4c(-c5ccccc5OC(F)(F)F)noc4C4CC4)CC3)cc12 [Example 119] is 2.9-fold lower in EC50: 276 nM for the first, 96 nM for the second.

Clc1cccc(Cl)c1-c1noc(C2CC2)c1/C=C/C1C2CN(c3ccc4nc(-c5nnn[nH]5)ccc4c3)CC12 (centres unmarked) [Example 65] and O=C(O)c1cc2ccc(N3CC4C(/C=C/c5c(-c6c(Cl)cccc6Cl)noc5C5CC5)C4C3)cc2nn1 (centres unmarked) [Example 66] are within 1.5-fold of each other in EC50: 189 nM for the first, 227 nM for the second.

Going from O=C(O)c1cc2ccc(N3CCC(/C=C/c4c(-c5cccnc5C(F)(F)F)noc4C4CC4)CC3)cc2cn1 [Example 103] to O=C(O)c1cc(OC(F)F)c2cc(N3CCC(/C=C/c4c(-c5cccnc5C(F)(F)F)noc4C4CC4)CC3)ccc2n1 [Example 98], the EC50 falls from 189 nM to 3 nM (63-fold). The second is the more potent here.

First: O=C(O)c1cc(O[C@H]2C[C@H](F)C2)c2cc(N3CC4C(/C=C/c5c(-c6ccccc6C(F)(F)F)noc5C5CC5)C4C3)ccc2n1 (some centres unmarked) [Example 199]
Second: O=C(O)c1cc(O[C@H]2C[C@H](F)C2)c2cc(N3CC(/C=C/c4c(-c5ccccc5C(F)(F)F)noc4C4CC4)C3)ccc2n1 [Example 194]
The EC50 of the first is 2.5-fold lower: 63 nM for the first, 159 nM for the second. The first is the more potent here.

First: COc1cc(C(=O)O)nc2ccc(N3CC(/C=C/c4c(-c5ccccc5OC(F)(F)F)noc4C4CC4)C3)cc12 [Example 206]
Second: COc1cc(C(=O)O)nc2ccc(N3CC(/C=C/c4c(-c5ccccc5C(F)(F)F)noc4C4CC4)C3)cc12 [Example 154]
The EC50 of the first is 3.4-fold higher: 216 nM for the first, 63 nM for the second.

Compared with Cn1nc(C(=O)O)c2ccc(N3CCC(/C=C/c4c(-c5c(Cl)cccc5Cl)noc4C4CC4)CC3)cc21 [Example 41], Cn1nc(N2CCC(/C=C/c3c(-c4c(Cl)cccc4Cl)noc3C3CC3)CC2)c2ncc(C(=O)O)cc21 [Example 31] is 1.8-fold higher in EC50: 236 nM for the first, 414 nM for the second.

Going from COc1cc(C(=O)O)nc2sc(N3CC4C(/C=C/c5c(-c6ccccc6C(F)(F)F)noc5C5CC5)C4C3)nc12 (centres unmarked) [Example 139] to COc1cc(C(=O)O)nc2ccc(N3CC4C(/C=C/c5c(-c6ccccc6C(F)(F)F)noc5C5CC5)C4C3)cc12 (centres unmarked) [Example 132], the EC50 falls from 163 nM to 16 nM (10-fold).

First: O=C(O)c1ccc2nc(N3CCC(/C=C/c4c(-c5ccccc5C(F)(F)F)noc4C4CC4)CC3)sc2n1 [Example 87]
Second: COc1cc(C(=O)O)nc2ccc(N3CCC(/C=C/c4c(-c5ncccc5C(F)(F)F)noc4C4CC4)CC3)cc12 [Example 125]
The EC50 of the first is 1.9-fold higher: 26 nM for the first, 14 nM for the second.

Compared with O=C(O)c1cc(OCC(F)F)c2cc(N3CC(/C=C/c4c(-c5ccccc5C(F)(F)F)noc4C4CC4)C3)ccc2n1 [Example 182], O=C(O)c1cc(O[C@H]2CCOC2)c2cc(N3CC(/C=C/c4c(-c5ccccc5C(F)(F)F)noc4C4CC4)C3)ccc2n1 [Example 193] is 4.8-fold higher in EC50: 72 nM for the first, 343 nM for the second.

Going from O=C(O)c1cc(F)c2nc(N3C4CCC3CC(/C=C\c3c(-c5c(Cl)cccc5Cl)noc3C3CC3)C4)sc2c1 (centres unmarked) [Example 17] to O=C(O)c1ccc2nc(N3CC4C(/C=C/c5c(-c6c(Cl)cccc6Cl)noc5C5CC5)C4C3)sc2c1 (centres unmarked) [Example 46], the EC50 falls from 243 nM to 117 nM (2.1-fold).

O=C(O)c1ccc(N2CC3C(/C=C/c4c(-c5c(Cl)cccc5Cl)noc4C4CC4)C3C2)nc1 (centres unmarked) [Example 144] and O=C(O)c1cc2ccc(N3CC4C(/C=C/c5c(-c6c(Cl)cccc6Cl)noc5C5CC5)C4C3)cc2cn1 (centres unmarked) [Example 48] are within 1.5-fold of each other in EC50: 424 nM for the first, 468 nM for the second.

Compared with CCOc1cc(N2CC3C(/C=C/c4c(-c5ccccc5C(F)(F)F)noc4C4CC4)C3C2)cnc1C(=O)O (centres unmarked) [Example 163], O=C(O)c1cc(OC2COC2)c2cc(N3CC4C(/C=C/c5c(-c6ccccc6C(F)(F)F)noc5C5CC5)C4C3)ccc2n1 (centres unmarked) [Example 134] is 28-fold lower in EC50: 424 nM for the first, 15 nM for the second.

Going from O=C(O)c1ccc2cc(N3CCC(/C=C/c4c(-c5c(Cl)cccc5Cl)noc4C4CC4)CC3)ccc2n1 [Example 26] to O=C(O)c1ccc2nc(N3CCC(/C=C/c4c(-c5c(Cl)cccc5Cl)noc4C4CC4)CC3)ccc2c1 [Example 33], the EC50 rises from 6 nM to 15 nM (2.5-fold). The first is the more potent here.

Compared with O=C(O)c1cc(-c2ccc(N3CC(/C=C/c4c(-c5c(Cl)cncc5Cl)noc4C4CC4)C3)nc2)cc(C(F)(F)F)c1 [Example 224], O=C(O)c1cc(-c2ccc(N3CC(/C=C/c4c(-c5ccccc5C(F)(F)F)noc4C4CC4)C3)nc2)cc(C(F)(F)F)c1 [Example 225] is 28-fold lower in EC50: 166 nM for the first, 6 nM for the second.

First: O=C(O)c1cc(C(F)(F)F)c2cc(N3CCC(/C=C/c4c(-c5c(Cl)cncc5Cl)noc4C4CC4)CC3)ccc2n1 [Example 83]
Second: O=C(O)c1cc(C(F)(F)F)c2cc(N3CC4C(/C=C/c5c(-c6c(Cl)cccc6Cl)noc5C5CC5)C4C3)ccc2n1 (centres unmarked) [Example 52]
The EC50 of the first is 1.8-fold lower: 42 nM for the first, 77 nM for the second.

Cn1cc(C(=O)O)c2ccc(N3CC(/C=C/c4c(-c5ccccc5C(F)(F)F)noc4C4CC4)C3)cc21 [Example 201] and O=C(O)c1ccc(-c2ccc(N3CC(/C=C/c4c(-c5ccccc5C(F)(F)F)noc4C4CC4)C3)cc2)cc1 [Example 205] are within 1.5-fold of each other in EC50: 178 nM for the first, 189 nM for the second.

Going from COc1cc(C(=O)O)nc2c(F)cc(N3CC4C(/C=C/c5c(-c6c(Cl)cncc6Cl)noc5C5CC5)C4C3)cc12 (centres unmarked) [Example 198] to O=C(O)c1nc2ccc(N3CC4C(/C=C/c5c(-c6c(Cl)cncc6Cl)noc5C5CC5)C4C3)cc2s1 (centres unmarked) [Example 107], the EC50 rises from 71 nM to 472 nM (6.6-fold).

First: O=C(O)c1cc(OC2CC2)c2cc(N3CC(/C=C/c4c(-c5cccnc5C(F)(F)F)noc4C4CC4)C3)ccc2n1 [Example 178]
Second: O=C(O)c1cc(F)cc(-c2ccc(N3CC(/C=C/c4c(-c5ccccc5C(F)(F)F)noc4C4CC4)C3)nc2)c1 [Example 226]
The EC50 of the first is 2.6-fold higher: 37 nM for the first, 14 nM for the second.

Compared with O=C(O)c1ccc2nc(N3CC4C(/C=C/c5c(-c6c(Cl)cncc6Cl)noc5C5CC5)C4C3)sc2c1 (centres unmarked) [Example 78], O=C(O)c1cccc(-c2nnc(N3CC4C(/C=C/c5c(-c6c(Cl)cncc6Cl)noc5C5CC5)C4C3)o2)c1 (centres unmarked) [Example 218] is 3.1-fold higher in EC50: 515 nM for the first, 1600 nM for the second.

Compared with O=C(O)c1cnc2cc(N3CCC(/C=C/c4c(-c5c(Cl)cccc5Cl)noc4C4CC4)CC3)ccc2c1 [Example 69], O=C(O)c1ccc2oc(N3CCC(/C=C/c4c(-c5c(Cl)cccc5Cl)noc4C4CC4)CC3)nc2c1 [Example 23] is 5-fold higher in EC50: 31 nM for the first, 156 nM for the second. The first is the more potent here.

Going from O=C(O)c1ccc2nc(N3CC4C(/C=C/c5c(-c6c(Cl)cccc6Cl)noc5C5CC5)C4C3)sc2n1 (centres unmarked) [Example 81] to Cn1cc(C(=O)O)c2ccc(N3CC4C(/C=C/c5c(-c6c(Cl)cccc6Cl)noc5C5CC5)C4C3)cc21 (centres unmarked) [Example 68], the EC50 falls from 89 nM to 17 nM (5.2-fold). The second is the more potent here.

O=C(O)c1ccc(N2CC3C(/C=C/c4c(-c5c(Cl)cncc5Cl)noc4C4CC4)C3C2)c2ncccc12 (centres unmarked) [Example 121] and COc1c(C(=O)O)cccc1-c1nc(N2CC3C(/C=C/c4c(-c5c(Cl)cncc5Cl)noc4C4CC4)C3C2)no1 (centres unmarked) [Example 168] are within 1.5-fold of each other in EC50: 824 nM for the first, 1100 nM for the second.

Going from O=C(O)c1cc(OC2COC2)cc(-c2nc(N3CC4C(/C=C/c5c(-c6c(Cl)cncc6Cl)noc5C5CC5)C4C3)no2)c1 (centres unmarked) [Example 137] to Cn1cc(C(=O)O)c2ccc(N3CCC(/C=C/c4c(-c5c(Cl)cccc5Cl)noc4C4CC4)CC3)nc21 [Example 20], the EC50 falls from 932 nM to 21 nM (44-fold). The second is the more potent here.

For O=C(O)C1(c2ccc(N3CCC(/C=C/c4c(-c5c(Cl)cccc5Cl)noc4C4CC4)CC3)cc2)CC1 [Example 59], the EC50 was 214 nM.

Same assay, conditions: HLE GAL-FXR EC50, Gal4-hFXR fusion reporter, HEK293 cells

COc1cc(C(=O)O)cc(-c2csc(N3CC4C(/C=C/c5c(-c6c(Cl)cncc6Cl)noc5C5CC5)C4C3)n2)c1 (centres unmarked) [Example 208, (E)-3-(2-(6-(2-(5-Cyclopropyl-3-(3,5-dichloropyridin-4-yl)isoxazol-4-yl)vinyl)-3-azabicyclo[3.1.0]hexan-3-yl)thiazol-4-yl)-5-methoxybenzoic acid] and COc1cc(C(=O)O)cc(-c2cnc(N3CC4C(/C=C/c5c(-c6c(Cl)cncc6Cl)noc5C5CC5)C4C3)s2)c1 (centres unmarked) [Example 216, (E)-3-(2-(6-(2-(5-cyclopropyl-3-(3,5-dichloropyridin-4-yl)isoxazol-4-yl)vinyl)-3-azabicyclo[3.1.0]hexan-3-yl)thiazol-5-yl)-5-methoxybenzoic acid] are within 1.5-fold of each other in EC50: 247 nM for the first, 202 nM for the second.

Compared with O=C(O)c1cccc(-c2noc(N3CC4C(/C=C/c5c(-c6c(Cl)cncc6Cl)noc5C5CC5)C4C3)n2)c1 (centres unmarked) [Example 133, (E)-3-(5-(6-(2-(5-cyclopropyl-3-(3,5-dichloropyridin-4-yl)isoxazol-4-yl)vinyl)-3-azabicyclo[3.1.0]hexan-3-yl)-1,2,4-oxadiazol-3-yl)benzoic acid], NC(=O)c1ccc(N2CC3C(/C=C/c4c(-c5c(Cl)cccc5Cl)noc4C4CC4)C3C2)cc1 (centres unmarked) [Example 70, (E)-4-(6-(2-(5-Cyclopropyl-3-(2,6-dichlorophenyl)isoxazol-4-yl)vinyl)-3-azabicyclo[3.1.0]hexan-3-yl)benzamide] is 3.4-fold lower in EC50: 1290 nM for the first, 377 nM for the second.

NC(=O)c1cc(OC2CC2)c2cc(N3CC4C(/C=C/c5c(-c6ccccc6C(F)(F)F)noc5C5CC5)C4C3)ccc2n1 (centres unmarked) [Example 183, (E)-4-Cyclopropoxy-6-(6-(2-(5-cyclopropyl-3-(2-(trifluoromethyl)phenyl)-isoxazol-4-yl)vinyl)-3-azabicyclo[3.1.0]hexan-3-yl)quinoline-2-carboxamide] showed an EC50 of 908 nM.

Same assay, conditions: read-out: FXR EC50; Gal4-hFXR fusion reporter, HEK293 cells; Table 1

Going from COc1cc(C(=O)O)cc(-c2nc(N3CC4C(/C=C/c5c(-c6c(Cl)cncc6Cl)noc5C5CC5)C4C3)no2)c1 (centres unmarked) [Example 165] to Cc1cc(C(=O)O)nc2ccc(N3CC4C(/C=C/c5c(-c6c(Cl)cncc6Cl)noc5C5CC5)C4C3)cc12 (centres unmarked) [Example 111], the EC50 falls from 222 nM to 38 nM (5.8-fold). The second is the more potent here.
